# Test results published in a melting point compilation (Tetko et al.; mined from patent text by program, amines drawn as free bases though some values may be those of a salt).
row,melting point,SMILES
1,206 to 208 °C,NC(=O)c1ccc(-c2cccc(N)c2)cc1
2,166 to 168 °C,CSc1ccc2c(c1)C=C(C(=O)O)C(C(F)(F)F)O2 (centres undefined)
3,194 to 196 °C,CCCOc1ccc(Nc2c([N+](=O)[O-])ccc(Cl)c2C(=O)O)cc1
4,53 to 54 °C,CN(C)C(=O)c1ccccc1N
5,95 to 96 °C,O=C(O)C(c1ccc(Cl)cc1)C1CC1 (centres undefined)
6,118 to 121 °C,CCOC(=O)C(NC(=O)C[N+](=O)[O-])C(=O)OCC
7,43 to 47 °C,CNc1noc(C)c1Cl
8,190 to 192 °C,Cn1c2ccccc2c2oc(C#N)cc(=O)c21
9,90 to 95 °C,O=C(Cn1nccc1-c1ccc(Oc2ccc(F)cc2)cc1)N1CCCC1
10,> 300 °C,CC1(C)CC(=O)C2=C(C1)NC1=C(C(=O)CC(C)(C)C1)C2c1ccc(Br)c([N+](=O)[O-])c1
11,90 to 100 °C,COc1ccc(C(=CC(=O)N2CCOCC2)c2ccc(Oc3nc(Cl)nc(Cl)n3)cc2)cc1OC
12,180 °C,CCOC(=O)c1nccn1C1Cc2ccc(Cl)cc2C1=O (centres undefined)
13,63 to 65 °C,COC(=O)COc1ccc(C(=O)C(C)Br)cc1Cl (centres undefined)
14,157 to 158 °C,O=C1NCCNN1c1ccc(Cc2ccc(Cl)cc2)c(Cl)c1
15,70 to 90 °C,COC(=O)CC1CCN(CCC=C2c3ccccc3OCOc3ccccc32)C1 (centres undefined)
16,192 °C,N#Cc1ccc(-c2ccc(Cl)c(OC3SCC(O)C(O)C3O)c2)cn1 (centres undefined)
17,177 to 179 °C,COC(=O)C1=C(C)NC(C)=C(C(=O)OC)C1C1CCC(C(=O)O)C1 (centres undefined)
18,195 to 197 °C,c1ccc(-c2cn3c(n2)Cc2ccccc2C3)cc1
19,168 to 169 °C,CCCNC(=O)C1=CCC2C3CCc4cc(O)ccc4C3CCC12C (centres undefined)
20,93 to 95 °C,O=C(O)[C@@H]1CSCN1C(=O)CCc1ccccc1
21,270 °C,NS(=O)(=O)c1ccc(-c2cc(-c3nc(-c4ccc(C(F)(F)F)nc4)cc(C(F)F)n3)ccn2)s1
22,189 to 190 °C,CCC1=NC(NC(=O)Nc2cccc(C)c2)C(=O)N(CC(=O)N2CCCCCCC2)c2c(C)cccc21 (centres undefined)

row,melting point,SMILES
1,> 300 °C,CS(=O)(=O)N(CCN1C(=O)c2ccccc2C1=O)c1c(Cl)c(Cl)cc2[nH]c(=O)c(=O)[nH]c12
2,116 °C,O=C(Nc1nc(C(Cl)(Cl)Cl)ns1)C(F)(F)F
3,194 to 196 °C,CONC(=N)c1ccc(-c2ccc(-c3ccc(C(=N)NOC)o3)cc2)cc1
4,266 °C,O=C(Nc1ccc(C(=O)O)c(O)c1)c1ccc(-c2ccccc2)cc1
5,75 to 77 °C,COc1cc2c(cc1S(=O)(=O)Cl)CCC2
6,158 °C,CCOc1cc(C(=O)N2CCc3cc(O)ccc3C2)cc(OCC)c1OCC
7,46 to 49 °C,CCCCCCCCCCCCCCOc1ccc(CN(C(C)=O)c2ccc(CBr)cc2)cc1
8,68 to 69 °C,COc1ccc(C(=O)Cc2ccccc2)cc1
9,228 to 231 °C,COCCc1nc2c(N)nc3cc(Br)ccc3c2n1CCCN1CCCC1=O
10,130 to 135 °C,CC(=O)CC(O)c1ccc(-c2ccc(N3C[C@H](Cn4ccnn4)OC3=O)cc2F)cn1 (some centres undefined)
11,100 °C,CC(C)(C(=O)Nc1ccc(Cl)cc1)/C(F)=C\F
12,134 to 136 °C,O=C1N(CCCCN2CCN(c3cn(-c4ccc(F)cc4)c4ccccc34)CC2)CSC12CCCCC2
13,299 to 300 °C,N#Cc1ccc(-c2ccc(-c3ccc(C#N)cc3)cc2)cc1
14,139 °C,CN(C)c1ccc(C(O)C#Cc2ccc(C(=O)O)cc2)cc1C(C)(C)C (centres undefined)
15,36 to 38 °C,CCOC(=O)C(C)c1ccc(-c2ccc(F)cc2F)c(F)c1 (centres undefined)
16,89 to 90 °C,FC(F)(F)C1(c2ccccc2)c2ccccc2Oc2ccccc21
17,162 to 163 °C,COc1ccc(Cl)c(NC(=O)N(C)c2cc(Nc3ccc(N4CCN(C)CC4)cc3)ncn2)c1Cl
18,180 to 181 °C,Cc1ccc(NC(=O)C(CS)Cc2ccccc2)c(C)c1C(=O)O (centres undefined)
19,201 °C,CSC1C(O)C(CO)OC1n1ccc(N)nc1=O (centres undefined)
20,183 to 184 °C,CCCn1cc(-c2c(-c3ccc(F)cc3)nn3ccncc23)ccc1=O
21,73 to 75 °C,CCOC(=O)Cc1cc(CC)c(C(=O)c2ccc(Cl)cc2)n1C

# Second part, the compound before the results:
row,SMILES,melting point
1,CCC(C(=O)C(C)C(O)C(C)CCCC(=O)c1c(NC(C)=O)cc(C)c(O)c1C(=O)O)C1OC(CC)(C2CCC(O)(CC)C(C)O2)CC1C (centres undefined),190 to 192 °C
2,CCOC(=O)c1sc(Nc2ccccc2)c2c1CCc1cn[nH]c1-2,202 to 203 °C
3,COc1ccc(S(N)(=O)=O)cc1C(C)O (centres undefined),165 to 166 °C
4,Cc1nc(-c2ccccc2F)n(O)c1-c1cccnc1,65 to 75 °C
5,CNc1cc(NS(=O)(=O)c2ccc(C(C)(C)C)cc2)nc(NC)n1,316 to 318 °C
6,CC(C)c1ccc(N(Cc2cnn(CCN(C)C)c2)C(=O)C2CCCc3c(O)cccc32)cc1 (centres undefined),92 °C
7,OC(c1ccc2noc(-c3cccc(Cl)c3)c2c1)c1nc(-c2ccccc2)cs1 (centres undefined),136 °C
8,Cc1nn(-c2c(Cl)cc(C(F)(F)F)cc2Cl)c(C)c1C=NC(C#N)=C(N)C#N,237 to 240 °C
9,CCCCOc1cccn2c(=O)cc(C)nc12,93 to 94 °C
10,N#Cc1ncn2c1[C@@H]1CCN1C(=O)c1c-2cccc1C(F)(F)F,115 to 119 °C
11,COc1ccc(NC(=O)c2ccc([N+](=O)[O-])c(C)c2)cc1,168 to 169 °C
12,Cc1c(F)c(F)c(C(=O)NC2CCCCCC2)c(F)c1F,164 to 165 °C
13,CC(=O)Oc1ccc(C(=O)c2ccc(C)c(OC(C)=O)c2)cc1,60 to 64 °C
14,O=C(NOCc1ccccc1)c1ccc(CNC(=O)c2cn3c4c(cccc24)CCC3)cc1,234 to 235 °C
15,O=C(NCCc1ccccc1)Nc1ccc(CN2C(=O)[C@H]3CCC[C@H]3N(C(=O)CN3C(=O)c4ccccc4C3=O)c3ccccc32)cc1 (relative stereo),145 to 147 °C
16,O=C(Nc1c(C(O)(C(F)(F)F)C(F)(F)F)ccc2ccccc12)c1ccc(C(F)(F)F)cc1,191 to 192 °C
17,O=c1sc2cc(Cl)ccc2n1CCCCl,131 to 132 °C
18,O=C(CN1CCC(Oc2ccccc2)CC1)Nc1ccc2c(c1)OCC(=O)N2,206 to 208 °C
19,CCOc1cc(-c2cc(C(F)(F)F)n3ncc(C(=O)Nc4cc(S(=O)(=O)NC(C)(C)CO)sc4Cl)c3n2)ccc1C(F)(F)F,234 °C

row,SMILES,melting point
1,COC1CN(C(C)CC(C(=O)N(C)C)(c2ccccc2)c2ccccc2)CCC1NC(=O)c1cccc(C(F)(F)F)c1 (centres undefined),198 °C
2,Cc1ccc(-n2nc(C(C)(C)C)cc2NC(=O)Nc2ccc(OCCc3ccncc3)c3ccccc23)cn1,189 to 190 °C
3,CNC(=O)C(Cc1ccc(OC)cc1)NC(=O)C(CC(C)C)C(S)CC(=O)OC (centres undefined),80 to 86 °C
4,CC(C)(C)OC(=O)N1CC=C(c2cnc(COc3ccc(S(C)(=O)=O)cc3)cc2Cl)CC1,148 to 150 °C
5,CON=C(C(=O)O)c1csc(NC(=O)OCC(Cl)(Cl)Cl)n1,162 to 163 °C
6,CCOC(=O)CCCCn1c(=O)n(CCN2CCN(c3ccccc3OC)CC2)c(=O)c2sccc21,118 to 119 °C
7,COc1ccc(S(=O)(=O)N2CCc3cccc(-c4ccc(Cl)cc4)c32)cc1,177 to 178 °C
8,CC(C)(C)OC(=O)N[C@@H](Cc1ccc(O)cc1)C(=O)NCCCN1CCN(CCCNc2cccc3c2C(=O)c2ccccc2C3=O)CC1,102 °C
9,Cc1ccc(C2COc3c(C)c(C)c(N)c(C)c32)cc1 (centres undefined),121 to 122 °C
10,COc1ccc(C(=O)c2ccc(Cl)c(Cl)c2)c(Cl)c1Cl,113 to 140 °C
11,CCc1cc(-n2c(=O)[nH]c3cc(C(F)(F)F)c(Oc4ccccc4)cc32)c(OC)cc1OC,> 240 °C
12,O=C1CCc2cccc3c2N1C(=O)CC3,136 to 140 °C
13,CCOC(=O)CC(=O)c1ccc(C)nn1,79 °C
14,CCOC(=O)c1cn2c(=O)n(C)c3ccccc3n2c1=O,243 to 244 °C
15,N#Cc1cc2c(s1)CCCC2NC=O (centres undefined),131 to 134 °C
16,C=CC(=O)N1C(C)(C)CC(OC(=O)C(C#N)(Cc2cc(C(C)(C)C)c(O)c(C(C)(C)C)c2)Cc2cc(C(C)(C)C)c(O)c(C(C)(C)C)c2)CC1(C)C,174 °C
17,CCCCCCCCCCCCCCCCCC(O)C[N+](=O)[O-] (centres undefined),55 to 56 °C
18,NS(=O)(=O)c1cc(Cl)cc(Cl)c1O,> 225 °C
19,COC(=O)c1cccc(F)c1O,94 to 95 °C

row,SMILES,melting point
1,O=C(O)c1ccccc1Oc1ccc(Br)cc1[N+](=O)[O-],136 to 138 °C
2,CC(C)c1nc(-c2cccnc2)c[nH]c1=O,200 to 202 °C
3,O=C(O)C1=Cc2cc(F)c(F)cc2NC1C(F)(F)F (centres undefined),187 to 189 °C
4,CC(=O)OC1Cc2ccccc2N(C#N)c2ccccc21 (centres undefined),108 to 119 °C
5,Cn1sc(=O)n(C)c1=O,64 to 65 °C
6,NC(=O)COc1ccccc1C(=O)Nc1ccc(C(=O)N2CCCC(=O)c3ccccc32)cc1,226 to 228 °C
7,CCCc1nc2c(N)nc3cc(CCc4cccnc4)ccc3c2n1NC(C)C,100 to 103 °C
8,COc1ccc(C(=O)Nc2ccc(F)c(F)c2)cc1N,171 to 172 °C
9,COc1cc(-c2cc(C(F)(F)F)nn2-c2ccc(S(C)(=O)=O)cc2)ccc1-c1cscn1,164 to 166 °C
10,COc1cc(-c2nc(NC(C)(C)C)c3c(C)c(C#N)sc3n2)cc(OC)c1OC,195 to 197 °C
11,CCOc1ccccc1C(=O)c1oc2ccc(Cl)cc2c1N,114 to 115 °C
12,CNC(=O)c1cnn(-c2ccc(Cl)cc2C(F)(F)F)c1C#N,162 to 164 °C
13,N#Cc1ccc(N2CCC(CCO)CC2)c2ccccc12,128 to 129 °C
14,COc1ccc(C(=O)Nc2c(Cl)cncc2Cl)c2c1oc1ccc([N+](=O)[O-])cc12,315 to 317 °C
15,Cc1ccc(N(C)S(=O)(=O)c2cccs2)c2[nH]c(C3=NCC(CC(=O)O)S3)cc12 (centres undefined),269 to 270 °C
16,COc1ccc(C(=O)Cc2c(Cl)cncc2Cl)c2c1OCCO2,158 to 160 °C
17,O=C(Nc1cccc(Cl)c1)C1=Cc2ccccc2S1=O (centres undefined),257 to 258 °C
18,CCCCCN1C(=O)C(CCC#N)(NC(=O)c2ccc(Cl)c(Cl)c2)c2ccccc21 (centres undefined),79 to 84 °C
